Data: PubChem BioAssay (NCI)
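Cultured in 96-well plates, cells were exposed to test compound for 48 hours across five concentrations. TGI: total growth inhibition.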

Columns and labels:
Assay in all cases: NCI anticancer screen, dose series, 48 h
NCI/ADR-RES ovarian = tested on: NCI/ADR-RES ovarian
UO-31 renal = tested on: UO-31 renal
CCRF-CEM leukemia = tested on: CCRF-CEM leukemia
MALME-3M melanoma = tested on: MALME-3M melanoma
LOX IMVI melanoma = tested on: LOX IMVI melanoma
SNB-19 CNS = tested on: SNB-19 CNS
SR leukemia = tested on: SR leukemia
OVCAR-8 ovarian = tested on: OVCAR-8 ovarian
HCC-2998 colon = tested on: HCC-2998 colon
SF-539 CNS = tested on: SF-539 CNS
KM12 colon = tested on: KM12 colon
SK-MEL-2 melanoma = tested on: SK-MEL-2 melanoma
MDA-MB-231 breast = tested on: MDA-MB-231 breast
UACC-62 melanoma = tested on: UACC-62 melanoma
HCT-116 colon = tested on: HCT-116 colon
HS 578T breast = tested on: HS 578T breast
NCI-H522 lung = tested on: NCI-H522 lung
ACHN renal = tested on: ACHN renal
HT29 colon = tested on: HT29 colon
786-0 renal = tested on: 786-0 renal
SF-295 CNS = tested on: SF-295 CNS
MOLT-4 leukemia = tested on: MOLT-4 leukemia
NCI-H23 lung = tested on: NCI-H23 lung
COLO 205 colon = tested on: COLO 205 colon
A549 NSCLC = tested on: A549 NSCLC
DU-145 prostate = tested on: DU-145 prostate
HCT-15 colon = tested on: HCT-15 colon
SF-268 CNS = tested on: SF-268 CNS
HOP-92 NSCLC = tested on: HOP-92 NSCLC
SN12C renal = tested on: SN12C renal
MDA-MB-435 = tested on: MDA-MB-435
U251 CNS = tested on: U251 CNS
A498 renal = tested on: A498 renal
OVCAR-5 ovarian = tested on: OVCAR-5 ovarian
SK-MEL-28 melanoma = tested on: SK-MEL-28 melanoma
SK-MEL-5 melanoma = tested on: SK-MEL-5 melanoma
OVCAR-3 ovarian = tested on: OVCAR-3 ovarian
SK-OV-3 ovarian = tested on: SK-OV-3 ovarian
BT-549 breast = tested on: BT-549 breast
NCI-H226 lung = tested on: NCI-H226 lung
TK-10 renal = tested on: TK-10 renal
SW-620 colon = tested on: SW-620 colon
MCF7 breast = tested on: MCF7 breast
EKVX NSCLC = tested on: EKVX NSCLC
MDA-N = tested on: MDA-N
RPMI-8226 leukemia = tested on: RPMI-8226 leukemia
HL-60(TB) leukemia = tested on: HL-60(TB) leukemia
M14 melanoma = tested on: M14 melanoma
PC-3 prostate = tested on: PC-3 prostate
CAKI-1 renal = tested on: CAKI-1 renal
RXF 393 renal = tested on: RXF 393 renal
HOP-62 NSCLC = tested on: HOP-62 NSCLC
T-47D breast = tested on: T-47D breast
OVCAR-4 ovarian = tested on: OVCAR-4 ovarian
UACC-257 melanoma = tested on: UACC-257 melanoma
SNB-75 CNS = tested on: SNB-75 CNS
IGROV1 ovarian = tested on: IGROV1 ovarian
K-562 leukemia = tested on: K-562 leukemia
NCI-H460 lung = tested on: NCI-H460 lung

c1ccc([P+](CCCCCCCC[P+](c2ccccc2)(c2ccccc2)c2ccccc2)(c2ccccc2)c2ccccc2)cc1
TGI (NCI/ADR-RES ovarian): > 100 µM
TGI (UO-31 renal): > 100 µM
TGI (CCRF-CEM leukemia): > 100 µM
TGI (MALME-3M melanoma): > 100 µM
TGI (LOX IMVI melanoma): 32.9 µM
TGI (SNB-19 CNS): > 100 µM
TGI (SR leukemia): 51.6 µM
TGI (OVCAR-8 ovarian): > 100 µM
TGI (HCC-2998 colon): > 100 µM
TGI (SF-539 CNS): 19.6 µM
TGI (KM12 colon): 49.5 µM
TGI (SK-MEL-2 melanoma): 24.7 µM
TGI (MDA-MB-231 breast): > 100 µM
TGI (UACC-62 melanoma): > 94.4 µM
TGI (HCT-116 colon): > 100 µM
TGI (HS 578T breast): > 100 µM
TGI (NCI-H522 lung): 12.1 µM
TGI (ACHN renal): > 100 µM
TGI (HT29 colon): > 50 µM
TGI (786-0 renal): > 100 µM
TGI (SF-295 CNS): > 72.9 µM
TGI (MOLT-4 leukemia): > 86 µM
TGI (NCI-H23 lung): > 52.8 µM
TGI (COLO 205 colon): 2.71 µM
TGI (A549 NSCLC): > 100 µM
TGI (DU-145 prostate): > 100 µM
TGI (HCT-15 colon): > 100 µM
TGI (SF-268 CNS): > 100 µM
TGI (HOP-92 NSCLC): 43.9 µM
TGI (SN12C renal): > 100 µM
TGI (MDA-MB-435): > 68.4 µM
TGI (U251 CNS): > 100 µM
TGI (A498 renal): > 86.4 µM
TGI (OVCAR-5 ovarian): > 91.1 µM
TGI (SK-MEL-28 melanoma): > 100 µM
TGI (SK-MEL-5 melanoma): 40.7 µM
TGI (OVCAR-3 ovarian): > 100 µM
TGI (SK-OV-3 ovarian): > 100 µM
TGI (BT-549 breast): > 100 µM
TGI (NCI-H226 lung): > 100 µM
TGI (TK-10 renal): > 73.7 µM
TGI (SW-620 colon): > 100 µM
TGI (MCF7 breast): > 87.5 µM
TGI (EKVX NSCLC): > 100 µM
TGI (MDA-N): > 100 µM
TGI (RPMI-8226 leukemia): 23.8 µM
TGI (HL-60(TB) leukemia): > 31.8 µM
TGI (M14 melanoma): > 100 µM
TGI (PC-3 prostate): > 30.8 µM
TGI (CAKI-1 renal): > 100 µM
TGI (RXF 393 renal): > 100 µM
TGI (HOP-62 NSCLC): > 100 µM
TGI (T-47D breast): > 100 µM
TGI (OVCAR-4 ovarian): > 100 µM
TGI (UACC-257 melanoma): > 37.7 µM
TGI (SNB-75 CNS): 7.73 µM
TGI (IGROV1 ovarian): > 23.9 µM
TGI (K-562 leukemia): > 100 µM
TGI (NCI-H460 lung): > 48.1 µM

CCOC(=O)c1sc2ncnc(N)c2c1C
TGI (NCI/ADR-RES ovarian): > 100 µM
TGI (UO-31 renal): > 100 µM
TGI (CCRF-CEM leukemia): > 100 µM
TGI (MALME-3M melanoma): > 100 µM
TGI (LOX IMVI melanoma): > 100 µM
TGI (SNB-19 CNS): > 100 µM
TGI (SR leukemia): > 100 µM
TGI (OVCAR-8 ovarian): > 100 µM
TGI (HCC-2998 colon): > 100 µM
TGI (SF-539 CNS): > 100 µM
TGI (KM12 colon): > 100 µM
TGI (SK-MEL-2 melanoma): > 100 µM
TGI (MDA-MB-231 breast): > 100 µM
TGI (UACC-62 melanoma): > 100 µM
TGI (HCT-116 colon): > 100 µM
TGI (HS 578T breast): > 100 µM
TGI (NCI-H522 lung): > 100 µM
TGI (ACHN renal): > 100 µM
TGI (HT29 colon): > 100 µM
TGI (786-0 renal): > 100 µM
TGI (SF-295 CNS): > 100 µM
TGI (MOLT-4 leukemia): > 100 µM
TGI (NCI-H23 lung): > 100 µM
TGI (COLO 205 colon): > 100 µM
TGI (A549 NSCLC): > 100 µM
TGI (DU-145 prostate): > 100 µM
TGI (HCT-15 colon): > 100 µM
TGI (SF-268 CNS): > 100 µM
TGI (HOP-92 NSCLC): 92.2 µM
TGI (SN12C renal): > 100 µM
TGI (MDA-MB-435): > 100 µM
TGI (U251 CNS): > 100 µM
TGI (A498 renal): > 100 µM
TGI (OVCAR-5 ovarian): > 100 µM
TGI (SK-MEL-28 melanoma): > 100 µM
TGI (SK-MEL-5 melanoma): > 100 µM
TGI (OVCAR-3 ovarian): > 100 µM
TGI (SK-OV-3 ovarian): > 100 µM
TGI (BT-549 breast): > 100 µM
TGI (NCI-H226 lung): > 100 µM
TGI (TK-10 renal): > 100 µM
TGI (SW-620 colon): > 100 µM
TGI (MCF7 breast): > 100 µM
TGI (EKVX NSCLC): > 100 µM
TGI (MDA-N): > 100 µM
TGI (RPMI-8226 leukemia): > 100 µM
TGI (HL-60(TB) leukemia): > 100 µM
TGI (M14 melanoma): > 100 µM
TGI (PC-3 prostate): > 100 µM
TGI (CAKI-1 renal): > 100 µM
TGI (RXF 393 renal): 71.3 µM
TGI (HOP-62 NSCLC): > 100 µM
TGI (T-47D breast): > 100 µM
TGI (OVCAR-4 ovarian): > 100 µM
TGI (UACC-257 melanoma): > 100 µM
TGI (SNB-75 CNS): > 100 µM
TGI (IGROV1 ovarian): > 100 µM
TGI (K-562 leukemia): > 100 µM
TGI (NCI-H460 lung): > 100 µM

CCOC(=O)NC(Nc1c(F)c(F)c(F)c(F)c1F)(C(F)(F)F)C(F)(F)F
TGI (NCI/ADR-RES ovarian): > 100 µM
TGI (UO-31 renal): > 100 µM
TGI (CCRF-CEM leukemia): > 100 µM
TGI (MALME-3M melanoma): > 100 µM
TGI (LOX IMVI melanoma): > 100 µM
TGI (SNB-19 CNS): > 100 µM
TGI (SR leukemia): > 100 µM
TGI (OVCAR-8 ovarian): > 100 µM
TGI (HCC-2998 colon): > 100 µM
TGI (SF-539 CNS): > 100 µM
TGI (KM12 colon): > 100 µM
TGI (SK-MEL-2 melanoma): > 100 µM
TGI (MDA-MB-231 breast): > 100 µM
TGI (UACC-62 melanoma): > 100 µM
TGI (HCT-116 colon): > 100 µM
TGI (HS 578T breast): > 100 µM
TGI (NCI-H522 lung): > 100 µM
TGI (ACHN renal): > 100 µM
TGI (786-0 renal): > 100 µM
TGI (SF-295 CNS): > 100 µM
TGI (MOLT-4 leukemia): > 100 µM
TGI (NCI-H23 lung): > 100 µM
TGI (COLO 205 colon): > 100 µM
TGI (A549 NSCLC): > 100 µM
TGI (DU-145 prostate): > 100 µM
TGI (HCT-15 colon): > 100 µM
TGI (SF-268 CNS): > 100 µM
TGI (HOP-92 NSCLC): > 100 µM
TGI (SN12C renal): > 100 µM
TGI (MDA-MB-435): > 100 µM
TGI (U251 CNS): > 100 µM
TGI (A498 renal): > 100 µM
TGI (OVCAR-5 ovarian): > 100 µM
TGI (SK-MEL-28 melanoma): > 100 µM
TGI (SK-MEL-5 melanoma): > 100 µM
TGI (OVCAR-3 ovarian): > 100 µM
TGI (SK-OV-3 ovarian): > 100 µM
TGI (BT-549 breast): > 100 µM
TGI (NCI-H226 lung): > 100 µM
TGI (TK-10 renal): > 100 µM
TGI (SW-620 colon): > 100 µM
TGI (MCF7 breast): > 100 µM
TGI (EKVX NSCLC): > 100 µM
TGI (MDA-N): > 100 µM
TGI (RPMI-8226 leukemia): > 100 µM
TGI (HL-60(TB) leukemia): > 100 µM
TGI (M14 melanoma): > 100 µM
TGI (PC-3 prostate): > 100 µM
TGI (CAKI-1 renal): > 100 µM
TGI (RXF 393 renal): > 100 µM
TGI (HOP-62 NSCLC): > 100 µM
TGI (T-47D breast): > 100 µM
TGI (UACC-257 melanoma): > 100 µM
TGI (SNB-75 CNS): > 100 µM
TGI (IGROV1 ovarian): > 100 µM
TGI (K-562 leukemia): > 100 µM
TGI (NCI-H460 lung): > 100 µM
